# Measured values reported in patent US9359367B2, “Tetrahydroquinazolinone derivatives as PARP inhibitors” (Lupin Limited, priority 2012, dated 2016).
# Target: T1, PARP1 (Homo sapiens, UniProt P09874)
# T1 construct: purchased BPS Bioscience
# Test: PARP1 Biochemical Assay (BPS Bioscience kit, chemiluminescence)
# Details: histone-coated plate, biotinilated NAD+, 25° C. for 60 min, luminescence, read-out: PARP 1 inhibition IC50
# Experimental: The assay was performed using BPS Bioscience kit. The 96-well strip plate was coated with 50 μl of histone mixture and incubated at 4° C. overnight. Next day the wells were blocked by adding 100 μl of blocking buffer. The plate was washed and 25 μl of appropriate concentration of PARP1 (25-75 ng/well) was added in all the Test and Positive control wells. In Negative control wells enzyme was replaced with 25 μl of water. To it 5 μl each of 10×PARP assay buffer and activated DNA was added in all the wells (Test, Positive and Negative control wells). 10× concentration of test compounds were prepared and 5 μl test compounds were added respective wells. Reaction volume was made up to 45 μl by adding water to all the wells. Finally, 5 μl of 10×PARP assay mixture containing biotinilated NAD^+ was added in each well and the plate was incubated at ambient temperature (25° C.) for 60 min. After washing the plate 50 μl of Streptavidin-HRP was added in each well and incubated the plate at RT for 30 min. The plate was washed and the luminescence was read in PHERAStar plate reader after adding 100 μl of chemiluminescent substrate.
# PARP inhibition was calculated using the following formula: % PARP inhibition=100−[(RLU test compound treated sample−RLU negative control)/(RLU Positive control−RLU negative control)×100]
# IC50 values were calculated by plotting % inhibition against the respective concentrations of test compounds using GraphPad Prism 5.
# T1 sequence (P09874 whole entry): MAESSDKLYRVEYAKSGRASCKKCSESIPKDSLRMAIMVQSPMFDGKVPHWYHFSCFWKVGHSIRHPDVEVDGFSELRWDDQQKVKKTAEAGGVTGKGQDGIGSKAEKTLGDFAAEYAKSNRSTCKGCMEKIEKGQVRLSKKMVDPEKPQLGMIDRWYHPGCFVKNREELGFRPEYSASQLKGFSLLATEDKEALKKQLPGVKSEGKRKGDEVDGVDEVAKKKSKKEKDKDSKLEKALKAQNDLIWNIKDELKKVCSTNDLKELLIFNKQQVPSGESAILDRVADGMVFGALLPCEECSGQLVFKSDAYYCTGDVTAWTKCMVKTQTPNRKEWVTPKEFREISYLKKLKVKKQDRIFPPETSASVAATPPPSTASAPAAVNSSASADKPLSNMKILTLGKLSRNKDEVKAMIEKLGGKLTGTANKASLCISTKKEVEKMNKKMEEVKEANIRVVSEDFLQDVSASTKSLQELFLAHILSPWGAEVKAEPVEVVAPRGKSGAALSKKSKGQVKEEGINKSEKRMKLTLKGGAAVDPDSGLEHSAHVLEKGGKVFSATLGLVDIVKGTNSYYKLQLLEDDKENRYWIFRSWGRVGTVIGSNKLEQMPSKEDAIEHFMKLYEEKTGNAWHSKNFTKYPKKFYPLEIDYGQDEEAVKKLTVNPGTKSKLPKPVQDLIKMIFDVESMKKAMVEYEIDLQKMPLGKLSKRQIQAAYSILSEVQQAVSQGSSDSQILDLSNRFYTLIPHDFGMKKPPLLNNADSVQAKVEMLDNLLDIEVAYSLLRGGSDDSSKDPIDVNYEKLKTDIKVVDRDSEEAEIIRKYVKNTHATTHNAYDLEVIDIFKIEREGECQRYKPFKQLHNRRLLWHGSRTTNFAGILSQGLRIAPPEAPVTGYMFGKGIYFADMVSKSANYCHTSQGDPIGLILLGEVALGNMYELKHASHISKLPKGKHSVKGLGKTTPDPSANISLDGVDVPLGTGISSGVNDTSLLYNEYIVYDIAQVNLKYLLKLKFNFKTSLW
row,IC50 [nM],SMILES
1,1 to 500,"Cc1cc(Cl)ccc1N1CCN([C@H]2C=C(c3nc4c(c(=O)[nH]3)CC3(CC4)CC3)CC2)CC1 [Compound 96, (R)-2′-(3-(4-(4-chloro-2-methylphenyl)piperazin-1-yl)cyclopent-1-en-1-yl)-7′,8′-dihydro-3′H-spiro[cyclopropane-1,6′-quinazolin]-4′(5′H)-one]"
2,1 to 500,"O=c1[nH]c(C2=C[C@H](N3CCN(c4nccs4)CC3)CC2)nc2c1CC1(CC2)CC1 [Compound 101, (R)-2′-(3-(4-(thiazol-2-yl)piperazin-1-yl)cyclopent-1-en-1-yl)-7′,8′-dihydro-3′H-spiro[cyclopropane-1,6′-quinazolin]-4′(5′H)-one]"
3,5000 to 500000,"O=C1CN([C@H]2C=C(c3nc4c(c(=O)[nH]3)CC3(CC4)CC3)CC2)CCN1c1ccc(F)cc1 [Compound 45, (R)2′-(3-(4-(4-fluorophenyl)-3-oxopiperazin-1-yl)cyclopent-1-en-1-yl)-7′,8′-dihydro-3′H-spiro[cyclopropane-1,6′-quinazolin]-4′(5′H)-one]"
4,501 to 5000,"O=c1[nH]c(C2=C[C@H](N3CCN(c4cccc(Cl)c4)CC3)CC2)nc2c1CC1(CC2)CC1 [Compound 60, (R)-2′-(3-(4-(3-chlorophenyl)piperazin-1-yl)cyclopent-1-en-1-yl)-7′,8′-dihydro-3′H-spiro[cyclopropane-1,6′-quinazolin]-4′(5′H)-one]"
5,1 to 500,"CNC(=O)c1ccc(N2CCN([C@H]3C=C(c4nc5c(c(=O)[nH]4)CC4(CC5)CC4)CC3)CC2)cc1 [Compound 54, (R)—N-methyl-4-(4-(3-(4′-oxo-4′,5′,7′,8′-tetrahydro-3′H-spiro[cyclopropane-1,6′-quinazolin]-2′-yl)cyclopent-2-en-1-yl)piperazin-1-yl)benzamide]"
6,1 to 500,"Cc1cc(N2CCN([C@H]3C=C(c4nc5c(c(=O)[nH]4)CC4(CC5)CC4)CC3)CC2)ncc1Cl [Compound 141, (R)-2′-(3-(4-(5-chloro-4-methylpyridin-2-yl)piperazin-1-yl)cyclopent-1-en-1-yl)-7′,8′-dihydro-3′H-spiro[cyclopropane-1,6′-quinazolin]-4′(5′H)-one]"
7,5000 to 500000,"O=c1[nH]c([C@@H]2CC[C@@H](N3CCN(c4ccc(Cl)cc4)CC3)C2)nc2c1CC1(CC2)CC1 [Compound 121, 2′-((1R,3R)-3-(4-(4-chlorophenyl)piperazin-1-yl)cyclopentyl)-7′,8′-dihydro-3′H-spiro[cyclopropane-1,6′-quinazolin]-4′(5′H)-one]"
8,1 to 500,"Cc1cccc(N2CCN([C@H]3C=C(c4nc5c(c(=O)[nH]4)CC4(CC5)CC4)CC3)CC2)n1 [Compound 145, (R)-2′-(3-(4-(6-methylpyridin-2-yl)piperazin-1-yl)cyclopent-1-en-1-yl)-7′,8′-dihydro-3′H-spiro[cyclopropane-1,6′-quinazolin]-4′(5′H)-one]"
9,501 to 5000,"O=c1[nH]c(C2=C[C@H](N3CCN(c4ccc(-c5ccsc5)cc4)CC3)CC2)nc2c1CC1(CC2)CC1 [Compound 148, (R)-2′-(3-(4-(4-(thiophen-3-yl)phenyl)piperazin-1-yl)cyclopent-1-en-1-yl)-7′,8′-dihydro-3′H-spiro[cyclopropane-1,6′-quinazolin]-4′(5′H)-one]"
10,1 to 500,"O=c1[nH]c([C@H]2CC[C@H](N3CCN(c4ccc(F)cc4)CC3)C2)nc2c1CC1(CC2)CC1 [Compound 149, 2′-((1S,3S)-3-(4-(4-fluorophenyl)piperazin-1-yl)cyclopentyl)-7′,8′-dihydro-3′H-spiro[cyclopropane-1,6′-quinazolin]-4′(5′H)-one]"
11,1 to 500,"O=c1[nH]c(C2=C[C@@H](N3CCN(c4ccc(F)cc4)CC3)CC2)nc2c1CCCC21CC1 [Compound 49, (S)-2′-(3-(4-(4-fluorophenyl)piperazin-1-yl)cyclopent-1-en-1-yl)-6′,7′-dihydro-3′H-spiro[cyclopropane-1,8′-quinazolin]-4′(5′H)-one]"
12,1 to 500,"Cc1ncccc1N1CCN([C@H]2C=C(c3nc4c(c(=O)[nH]3)CC3(CC4)CC3)CC2)CC1 [Compound 129, (R)-2′-(3-(4-(2-methylpyridin-3-yl)piperazin-1-yl)cyclopent-1-en-1-yl)-7′,8′-dihydro-3′H-spiro[cyclopropane-1,6′-quinazolin]-4′(5′H)-one]"
13,1 to 500,"Cc1ccc(F)cc1N1CCN([C@H]2C=C(c3nc4c(c(=O)[nH]3)CC3(CC4)CC3)CC2)CC1 [Compound 123, (R)-2′-(3-(4-(5-fluoro-2-methylphenyl)piperazin-1-yl)cyclopent-1-en-1-yl)-7′,8′-dihydro-3′H-spiro[cyclopropane-1,6′-quinazolin]-4′(5′H)-one]"
14,1 to 500,"CNC(=O)c1cccc(N2CCN([C@H]3C=C(c4nc5c(c(=O)[nH]4)CC4(CC5)CC4)CC3)CC2)c1 [Compound 87, (R)—N-methyl-3-(4-(3-(4′-oxo-4′,5′,7′,8′-tetrahydro-3′H-spiro[cyclopropane-1,6′-quinazolin]-2′-yl)cyclopent-2-en-1-yl)piperazin-1-yl)benzamide]"
15,1 to 500,"O=c1[nH]c(CCCN2CCN(c3ccc(Cl)cc3Cl)CC2)nc2c1CC1(CC2)CC1 [Compound 34, 2′-(3-(4-(2,4-dichlorophenyl)piperazin-1-yl)propyl)-7′,8′-dihydro-3′H-spiro[cyclopropane-1,6′-quinazolin]-4′(5′H)-one]"
16,1 to 500,"COc1cc(N2CCN([C@H]3C=C(c4nc5c(c(=O)[nH]4)CC4(CC5)CC4)CC3)CC2)ccc1F [Compound 114, (R)-2′-(3-(4-(4-fluoro-3-methoxyphenyl)piperazin-1-yl)cyclopent-1-en-1-yl)-7′,8′-dihydro-3′H-spiro[cyclopropane-1,6′-quinazolin]-4′(5′H)-one]"
17,501 to 5000,"O=c1[nH]c(CCCN2CCN(c3ccccc3)CC2)nc2c1CC1CC1C2 (stereo not drawn) [Compound 25, 2-(3-(4-phenylpiperazin-1-yl)propyl)-5a,6,6a,7-tetrahydro-3H-cyclopropa[g]quinazolin-4(5H)-one]"
18,1 to 500,"O=c1[nH]c(C2=C[C@H](N3CCN(c4cccc(F)c4F)CC3)CC2)nc2c1CC1(CC2)CC1 [Compound 100, (R)-2′-(3-(4-(2,3-difluorophenyl)piperazin-1-yl)cyclopent-1-en-1-yl)-7′,8′-dihydro-3′H-spiro[cyclopropane-1,6′-quinazolin]-4′(5′H)-one]"
19,1 to 500,"N#Cc1ccc(N2CCN([C@H]3C=C(c4nc5c(c(=O)[nH]4)CC4(CC5)CC4)CC3)CC2)cc1F [Compound 127, (R)-2-fluoro-4-(4-(3-(4′-oxo-4′,5′,7′,8′-tetrahydro-3′H-spiro[cyclopropane-1,6′-quinazolin]-2′-yl)cyclopent-2-en-1-yl)piperazin-1-yl)benzonitrile]"
20,1 to 500,"O=c1[nH]c(CCCN2CCN(c3ccncc3)CC2)nc2c1CC1(CC2)CC1 [Compound 29, 2′-(3-(4-(pyridin-4-yl)piperazin-1-yl)propyl)-7′,8′-dihydro-3′H-spiro[cyclopropane-1,6′-quinazolin]-4′(5′H)-one]"
21,501 to 5000,"O=c1[nH]c(C2=C[C@H](N3CCN(c4c(F)cccc4F)CC3)CC2)nc2c1CC1(CC2)CC1 [Compound 110, (R)-2′-(3-(4-(2,6-difluorophenyl)piperazin-1-yl)cyclopent-1-en-1-yl)-7′,8′-dihydro-3′H-spiro[cyclopropane-1,6′-quinazolin]-4′(5′H)-one]"
22,1 to 500,"O=c1[nH]c(C2=C[C@H](N3CCN(c4ccc(Cl)cc4Cl)CC3)CC2)nc2c1CC1(CC2)CC1 [Compound 65, (R)-2′-(3-(4-(2,4-dichlorophenyl)piperazin-1-yl)cyclopent-1-en-1-yl)-7′,8′-dihydro-3′H-spiro[cyclopropane-1,6′-quinazolin]-4′(5′H)-one]"
23,1 to 500,"O=c1[nH]c(C2=C[C@H](N3CCN(c4ccccc4)CC3)CC2)nc2c1CC1(CC2)CC1 [Compound 117, (R)-2′-(3-(4-phenylpiperazin-1-yl)cyclopent-1-en-1-yl)-7′,8′-dihydro-3′H-spiro[cyclopropane-1,6′-quinazolin]-4′(5′H)-one]"
24,1 to 500,"O=c1[nH]c(C2=CC(N3CCN(c4ccc(Br)cc4)CC3)CC2)nc2c1CC1(CC2)CC1 (stereo not drawn) [Compound 50, 2′-(3-(4-(4-bromophenyl)piperazin-1-yl)cyclopent-1-en-1-yl)-7′,8′-dihydro-3′H-spiro[cyclopropane-1,6′-quinazolin]-4′(5′H)-one]"
25,1 to 500,"O=c1[nH]c(C2=C[C@H](N3CCN(c4ccc(Cl)cn4)CC3)CC2)nc2c1CC1(CC2)CC1 [Compound 57, (R)-2′-(3-(4-(5-chloropyridin-2-yl)piperazin-1-yl)cyclopent-1-en-1-yl)-7′,8′-dihydro-3′H-spiro[cyclopropane-1,6′-quinazolin]-4′(5′H)-one]"
26,5000 to 500000,"O=c1[nH]c(CCCN2CCN(c3ccc(F)cc3)CC2)nc2c1CCC1(CC1)C2 [Compound 15, 2′-(3-(4-(4-fluorophenyl)piperazin-1-yl)propyl)-5′,6′-dihydro-3′H-spiro[cyclopropane-1,7′-quinazolin]-4′(8′H)-one]"
27,1 to 500,"CC1CN(c2ccc(F)cc2)CCN1CCCc1nc2c(c(=O)[nH]1)CC1(CC2)CC1 (stereo not drawn) [Compound 27, 2′-(3-(4-(4-fluorophenyl)-2-methylpiperazin-1-yl)propyl)-7′,8′-dihydro-3′H-spiro[cyclopropane-1,6′-quinazolin]-4′(5′H)-one]"
